The text below walks through data of patent US7989629B2, “3-(4-{ [4-(4-{ [3-(3, 3-dimethyl-1-piperidinyl) propyl] oxy} phenyl)-1-piperidinyl] carbonyl}-1-naphthalenyl) propanoic or propenoic acid as H1 and H3 receptor antagonists for the treatment of inflammatory and/or allergic disorders” (Glaxo Group Limited, priority 2005, dated 2011).

As a reminder, the half-life is how long it takes for the measured level to halve. Usually bioavailability stands for dose-corrected exposure relative to a reference, in per cent. By Kb is commonly meant the equilibrium dissociation constant of an antagonist, usually derived from a functional assay. Read a low Kb as a more potent antagonist.

One data set can be described thus: Dog pharmacokinetics. Format: in vivo. Particulars: combined data for Example 1 and 3; for half-life / bioavailability: male, Beagle, whole blood; for bioavailability: po, 2 mg/kg. As to the method:
Compounds are dosed to male Beagle dogs by single intravenous or oral administration at a nominal dose level of 1 mg/kg and 2 mg/kg respectively. The study is carried out according to a crossover design such that the same dog is used for both dosing events and the dosing events occurred 1 week apart. Compounds are formulated in 5% DMSO/45% Peg200/50% water. An intravenous profile is obtained by taking serial blood samples at 0.083, 0.25, 0.5, 0.75, 1, 2, 4, 6 and 12 hr post dose (for some studies 24 hour samples may be taken). An oral profile is obtained by taking serial blood samples at 0.25, 0.5, 0.75, 1, 2, 4, 6, 12 and 24 hr post dose. Blood samples are taken directly into heparinised tubes. Blood samples are prepared by protein precipitation and subjected to quantitative analysis by LC-MS/MS using compound-specific mass transitions. Drug concentration-time profiles are generated and non-compartmental PK analysis used to generate estimates of half-life, clearance, volume of distribution and oral bioavailability.

For data set [1], the target named is T1, human H1 receptor (Homo sapiens, UniProt P35367). The data set is described as follows: Histamine H1 functional antagonist assay (FLIPR): determination of functional pKi values. Format: cell-based. Conditions: functional antagonism, CHO cells, histamine at EC80; read-out: average pKi (pKb) at H1 (converted). The source says:
H1 Receptor Cell Line Generation and FLIPR Assay Protocol
1. Generation of Histamine H1 Cell Line
(§1) The human H1 receptor may be cloned using known procedures described in the literature [Biochem. Biophys. Res. Commun., 201(2):894 (1994)]. Chinese hamster ovary (CHO) cells stably expressing the human H1 receptor may be generated according to known procedures described in the literature [Br. J. Pharmacol., 117(6):1071 (1996)].
Histamine H1 Functional Antagonist Assay: Determination of Functional pKi Values […]
10 μl of test compound, diluted to the required concentration in Tyrodes buffer+probenecid (or 10 μl Tyrodes buffer+probenecid as a control) is added to each well and the plate incubated for 30 min at 37° C., 5% CO2. The plates are then placed into a FLIPR™ (Molecular Devices, UK) to monitor cell fluorescence (λex=488 nm, λEM=540 nm) in the manner described in Sullivan et al., (In: Lambert D G (ed.), Calcium Signaling Protocols, New Jersey: Humana Press, 1999, 125-136) before and after the addition of 10 μl histamine at a concentration that results in the final assay concentration of histamine being EC80.
Functional antagonism is indicated by a suppression of histamine induced increase in fluorescence, as measured by the FLIPR™ system (Molecular Devices). By means of concentration effect curves, functional affinities are determined using standard pharmacological mathematical analysis.

The next data set in a line: Rat pharmacokinetics. Format: in vivo. How it is done: Compounds are dosed to male CD Sprague Dawley rats by single intravenous or oral administration at a nominal dose level of 1 mg/kg and 3 mg/kg respectively. Compounds are formulated in 5% DMSO/45% PEG200/50% water. An intravenous profile is obtained by taking serial or terminal blood samples at 0.083, 0.25, 0.5, 1, 2, 4, and 7 hours post dose (for some studies 12 and 24 hour samples may be taken). An oral profile is obtained by taking serial or terminal blood samples at 0.25, 0.5, 1, 2, 4, 7 and 12 hours post dose (for some studies 24 and 30 hour samples may be taken). Blood samples are taken directly into heparinised tubes. Blood samples are prepared by protein precipitation and subjected to quantitative analysis by LC-MS/MS using compound-specific mass transitions. Drug concentration-time profiles are generated and non-compartmental PK analysis used to generate estimates of half-life, clearance, volume of distribution and oral bioavailability.

The next data set has as its target histamine H3 receptor (Homo sapiens, UniProt Q9Y5N1). Put plainly: Histamine H3 functional antagonist assay (GTPγS). Format: biochemical. Conditions: functional antagonism, histamine at EC80; read-out: average pKi (pKb) at H3 (converted). The source says:
2. H3 Receptor Cell Line Generation, Membrane Preparation and Functional GTPγS Assay Protocols
Generation of Histamine H3 Cell Line
The histamine H3 cDNA is isolated from its holding vector, pcDNA3.1 TOPO (InVitrogen), by restriction digestion of plasmid DNA with the enzymes BamH1 and Not-1 and ligated into the inducible expression vector pGene (InVitrogen) digested with the same enzymes. The GeneSwitch™ system (a system wherein transgene expression is switched off in the absence of an inducer and switched on in the presence of an inducer) is performed as described in U.S. Pat. Nos. 5,364,791; 5,874,534; and 5,935,934. […]
10-14 days post selection, 10 nM Mifepristone (InVitrogen) is added to the culture medium to induce the expression of the receptor. […] Receptor bound antibody is detected by incubation of the cells for 60 min on ice with a goat anti rabbit antibody, conjugated with Alexa 488 fluorescence marker (Molecular Probes). Following two further washes with Sorting Medium, cells are filtered through a 50 μm Filcon™ (BD Biosciences) and are then analysed on a FACS Vantage SE Flow Cytometer fitted with an Automatic Cell Deposition Unit, Control cells are non-induced cells treated in a similar manner. […]

For a further data set, the system named is histamine-induced wheals. The data set is described as follows: In vivo anti-inflammatory wheal and flare model. The arrangement: species or system guinea pig. As to the method: In Vivo Anti-Inflammatory Wheal and Flare Model
Male Dunkin-Hartley guinea pigs 500 g-1 kg are dosed with test compound or vehicle using a 1 ml syringe into the oral cavity (0.5 ml/kg p.o.), or via a marginal ear vein (0.33 ml/kg i.v.). Compounds are formulated in 5% DMSO/45% PEG200/50% water.
Either 2 hr after oral or 15 min after intravenous compound administration, guinea pigs are anaesthetised with isoflurane (5%, […] O2), and receive Evans blue solution (2% in saline), 0.33 ml/kg i.v. via a marginal ear vein.
Immediately after Evans blue administration, and whilst still under isoflurane, animals are placed in a prone position, and an area of the back shaved. […]
Following histamine challenge, the animals are allowed to recover from anaesthesia and, 30 minutes later are euthanased with an i.p. overdose of pentobarbitone. The dorsal skin is carefully removed and wheal areas (stained blue) measured from the inner skin surface by taking two perpendicular diameters using engineer's calipers, and calculating the average radius. This value is used to calculate the area of each wheal, and the mean value of all histamine-induced wheals is subsequently calculated for each animal. […]
Dose-response curves are constructed for each test compound and ID50 values may be determined for each route of administration (oral and intravenous).

The target in data set [2] is T1, human H1 receptor. Put plainly: Histamine H1 functional antagonist assay (FLIPR): determination of antagonist pA2. It counts as cell-based. As to the method: as §1
Histamine H1 Functional Antagonist Assay: Determination of Antagonist pA2
The histamine H1 receptor expressing CHO cells is seeded into non-coated black-walled clear bottom 96-well tissue culture plates as described above. […]
The plates are then placed into a FLIPR™ (Molecular Devices, UK) to monitor cell fluorescence (λex=488 nm, λEM=540 nm) in the manner described in Sullivan et al., (In: Lambert D G (ed.), Calcium Signaling Protocols, New Jersey: Humana Press, 1999, 125-136) before and after the addition of 50 μl histamine over a concentration range of 1 mM-0.1 nM. […] The antagonist pA2 is calculated using the following standard equation: pA2=log(DR−1)−log [B] where DR=dose ratio, defined as EC50antagonist-treated/EC50control and [B]=concentration of antagonist.

Molecules are shown by their SMILES.

T1 sequence (P35367 whole entry): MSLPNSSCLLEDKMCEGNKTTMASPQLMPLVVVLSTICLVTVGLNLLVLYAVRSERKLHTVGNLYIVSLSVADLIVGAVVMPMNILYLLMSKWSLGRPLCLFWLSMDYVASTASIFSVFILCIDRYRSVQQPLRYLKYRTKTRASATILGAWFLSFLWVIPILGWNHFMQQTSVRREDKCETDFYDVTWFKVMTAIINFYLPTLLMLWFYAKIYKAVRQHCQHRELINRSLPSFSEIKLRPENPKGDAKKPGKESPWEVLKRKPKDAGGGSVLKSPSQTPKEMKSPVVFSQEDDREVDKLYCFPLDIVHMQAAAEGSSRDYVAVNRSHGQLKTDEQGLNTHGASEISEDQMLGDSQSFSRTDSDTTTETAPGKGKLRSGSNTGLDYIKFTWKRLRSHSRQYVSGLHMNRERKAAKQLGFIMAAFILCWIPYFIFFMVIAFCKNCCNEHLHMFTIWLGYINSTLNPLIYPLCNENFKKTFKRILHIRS
Sequence of histamine H3 receptor (Q9Y5N1 whole entry, species assumed): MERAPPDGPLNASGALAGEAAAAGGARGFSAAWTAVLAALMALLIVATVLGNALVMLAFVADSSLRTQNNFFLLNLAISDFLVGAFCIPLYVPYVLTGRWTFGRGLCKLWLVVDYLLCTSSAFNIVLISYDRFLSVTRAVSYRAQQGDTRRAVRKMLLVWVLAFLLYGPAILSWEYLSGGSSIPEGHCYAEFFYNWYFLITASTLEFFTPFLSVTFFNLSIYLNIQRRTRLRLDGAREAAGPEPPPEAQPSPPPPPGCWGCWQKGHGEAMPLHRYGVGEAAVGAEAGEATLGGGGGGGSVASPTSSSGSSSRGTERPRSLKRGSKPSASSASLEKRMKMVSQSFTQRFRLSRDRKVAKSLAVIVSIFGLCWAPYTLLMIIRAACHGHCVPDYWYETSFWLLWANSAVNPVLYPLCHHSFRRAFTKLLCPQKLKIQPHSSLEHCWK

As to `CC1(C)CCCN(CCCOc2ccc(C3CCN(C(=O)c4ccc(CCC(=O)O)c5ccccc45)CC3)cc2)C1` [Example 1, 3-(4-{[4-(4-{[3-(3,3-dimethyl-1-piperidinyl)propyl]oxy}phenyl)-1-piperidinyl]carbonyl}-1-naphthalenyl)propanoic acid, formic acid (1:1)], the plasma clearance result in the data set “Dog pharmacokinetics” and in the data set “Rat pharmacokinetics” was “low” throughout. The half-life is approximately 3 h in the data set “Dog pharmacokinetics” and 4 to 5 h in the data set “Rat pharmacokinetics” (male, CD Sprague Dawley, whole blood, 1 mg/kg, IV route). Also, the bioavailability in the data set “Dog pharmacokinetics” is approximately 60%; in “Rat pharmacokinetics” (male, CD Sprague Dawley, whole blood, po, 3 mg/kg), approximately 59%. Also, the Ki at human H1 receptor [1] is approximately 15.8 nM; on histamine H3 receptor, approximately 39.8 nM.
As for `CC1(C)CCCN(CCCOc2ccc(C3CCN(C(=O)c4ccc(CCC(=O)O)c5ccccc45)CC3)cc2)C1.Cl` [Example 3, 3-(4-{[4-(4-{[3-(3,3-dimethyl-1-piperidinyl)propyl]oxy}phenyl)-1-piperidinyl]carbonyl}-1-naphthalenyl)propanoic acid, hydrochloride salt], in the data set “Dog pharmacokinetics”, the plasma clearance result is “low”. The half-life in “Dog pharmacokinetics” is approximately 3 h. For the same compound, the bioavailability in “Dog pharmacokinetics” is approximately 60%. Besides, the Ki is approximately 12.6 nM on human H1 receptor [1] and approximately 50.1 nM on histamine H3 receptor. The “ID50 in the wheal and flare model” value with histamine-induced wheals (i.v.) is “about 0.6 mg/Kg”; in the data set on histamine-induced wheals (oral) it was “about 2.8 mg/Kg”. On human H1 receptor [2], this compound gave a Kb of approximately 7.94 nM.
